Test results: PubChem BioAssay AID1963874 (Molecular Pharmacology Branch, DTP, NCI, 2024)

Tested on: 253994-281-T-J1-PDC KRAS-mutant spheroids with HUVEC/MSC, viability
Assay: Anticancer human tumor 253994-281-T-J1-PDC patient-derived colorectal carcinoma cell line growth inhibition [KRAS2]
Conditions: for IC50: curve of first compound; for viability, T/C: stronger effect = lower value
Outline: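 Combination screen of spheroid viability in tumor-cell co-cultures with endothelial (HUVEC) and mesenchymal stem cell stroma. Each agent was tested in half-log dilutions, topping at clinical Cmax or at 10 microM without a known Cmax.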

[1] = second compound 0.1 µM, first compound 0.0316 µM
[2] = second compound 0.1 µM, first compound 0.1 µM
[3] = second compound 0.1 µM, first compound 0.316 µM
[4] = second compound 0.1 µM, first compound 1 µM
[5] = second compound 0.1 µM, first compound 3.16 µM
[6] = second compound 0.1 µM, first compound 10 µM
[7] = second compound 0.316 µM, first compound 0.0316 µM
[8] = second compound 0.316 µM, first compound 0.1 µM
[9] = second compound 0.316 µM, first compound 0.316 µM
[10] = second compound 0.316 µM, first compound 1 µM
[11] = second compound 0.316 µM, first compound 3.16 µM
[12] = second compound 0.316 µM, first compound 10 µM
[13] = second compound 1 µM, first compound 0.0316 µM
[14] = second compound 1 µM, first compound 0.1 µM
[15] = second compound 1 µM, first compound 0.316 µM
[16] = second compound 1 µM, first compound 1 µM
[17] = second compound 1 µM, first compound 3.16 µM
[18] = second compound 1 µM, first compound 10 µM
[19] = second compound 3.16 µM, first compound 0.0316 µM
[20] = second compound 3.16 µM, first compound 0.1 µM
[21] = second compound 3.16 µM, first compound 0.316 µM
[22] = second compound 3.16 µM, first compound 1 µM
[23] = second compound 3.16 µM, first compound 3.16 µM
[24] = second compound 3.16 µM, first compound 10 µM
[25] = second compound 10 µM, first compound 0.0316 µM
[26] = second compound 10 µM, first compound 0.1 µM
[27] = second compound 10 µM, first compound 0.316 µM
[28] = second compound 10 µM, first compound 1 µM
[29] = second compound 10 µM, first compound 3.16 µM
[30] = second compound 10 µM, first compound 10 µM
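Also: spheroids exposed to agents for seven days before readout.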
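For viability, T/C in this document: percent of DMSO vehicle control viability.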

Row | Compound | IC50 (second compound 0.1 µM) [µM] | IC50 (second compound 0.316 µM) [µM] | IC50 (second compound 1 µM) [µM] | IC50 (second compound 3.16 µM) [µM] | IC50 (second compound 10 µM) [µM] | viability, T/C [1] [%] | viability, T/C [2] [%] | viability, T/C [3] [%] | viability, T/C [4] [%] | viability, T/C [5] [%] | viability, T/C [6] [%] | viability, T/C [7] [%] | viability, T/C [8] [%] | viability, T/C [9] [%] | viability, T/C [10] [%] | viability, T/C [11] [%] | viability, T/C [12] [%] | viability, T/C [13] [%] | viability, T/C [14] [%] | viability, T/C [15] [%] | also measured
1 | COC(=O)c1ccc2c(C(=Nc3ccc(N(C)C(=O)CN4CCN(C)CC4)cc3)c3ccccc3)c(O)[nH]c2c1 + CNCc1ccccc1-c1csc(C(C)Nc2nc(C)nc3cc(OC)c(OC)cc23)c1 | 6.67 | 4.12 | 4.52 | < 0.0316 | < 0.0316 | 90.3 | 97.4 | 73.2 | 89.3 | 77 | 35.2 | 99.1 | 74.1 | 80.8 | 83.8 | 61.7 | 10.7 | 82.6 | 75 | 77.3 | viability, T/C [16]: 70.8%; viability, T/C [17]: 72.3%; viability, T/C [18]: 0.33%; viability, T/C [19]: 20.7%; viability, T/C [20]: 23.6%; viability, T/C [21]: 3.7%; viability, T/C [22]: 1.12%; viability, T/C [23]: 0.36%; viability, T/C [24]: 0.17%; viability, T/C [25]: 0.14%; viability, T/C [26]: 0.16%; viability, T/C [27]: 0.15%; viability, T/C [28]: 0.22%; viability, T/C [29]: 0.12%; viability, T/C [30]: 0.17%
2 | COc1cc(Nc2ncc3c(n2)-c2ccc(Cl)cc2C(c2c(F)cccc2OC)=NC3)ccc1C(=O)O + CNCc1ccccc1-c1csc(C(C)Nc2nc(C)nc3cc(OC)c(OC)cc23)c1 | 0.0395 | < 0.0316 | < 0.0316 | < 0.0316 | < 0.0316 | 54.1 | 28.8 | 25.6 | 31.4 | 30.5 | 45 | 49.7 | 31.7 | 28.5 | 30.3 | 39.5 | 33.5 | 39.1 | 25.6 | 25.1 | viability, T/C [16]: 30%; viability, T/C [17]: 26.2%; viability, T/C [18]: 30.9%; viability, T/C [19]: 9.35%; viability, T/C [20]: 1.45%; viability, T/C [21]: 1.32%; viability, T/C [22]: 0.29%; viability, T/C [23]: 4.67%; viability, T/C [24]: 15.5%; viability, T/C [25]: 0.14%; viability, T/C [26]: 0.15%; viability, T/C [27]: 0.15%; viability, T/C [28]: 0.14%; viability, T/C [29]: 0.15%; viability, T/C [30]: 0.18%
3 | COc1cc2nccc(Oc3ccc(NC(=O)C4(C(=O)Nc5ccc(F)cc5)CC4)cc3)c2cc1OC + CNCc1ccccc1-c1csc(C(C)Nc2nc(C)nc3cc(OC)c(OC)cc23)c1 | > 10 | 5.3 | 3.47 | < 0.0316 | < 0.0316 | 99.4 | 99.1 | 83.8 | 85 | 94.5 | 61.1 | 98.2 | 92 | 84.9 | 96.6 | 68 | 28 | 93.3 | 87.4 | 85.1 | viability, T/C [16]: 85.7%; viability, T/C [17]: 53.9%; viability, T/C [18]: 5.85%; viability, T/C [19]: 43.2%; viability, T/C [20]: 45.6%; viability, T/C [21]: 49.7%; viability, T/C [22]: 25%; viability, T/C [23]: 12.3%; viability, T/C [24]: 0.16%; viability, T/C [25]: 0.13%; viability, T/C [26]: 0.14%; viability, T/C [27]: 0.13%; viability, T/C [28]: 0.13%; viability, T/C [29]: 0.29%; viability, T/C [30]: 0.16%
